Reference: patent publication US9567319B2, “Compound having higher inhibitory activity on protein kinase G and preparation method thereof” (Jenkem Technology Co., Ltd., (Tianjin), priority 2014, dated 2017)

Assay: Test of water solubility of the compounds
Conditions: for Volume of added water: about 0.1 g sample, water added until dissolved; for water solubility, times higher than that of compound 46: relative to compound 46 (parent compound); for solubility: water
Experimental: At room temperature, about 0.1 g of each sample to be tested (solid materials should be ground as powder) was added to a 10 mL cylinder with a ground glass stopper. Water was gradually added. After each addition of 0.5 mL water, the resulting solution was stirred for 10 min for mixing, and was then visually examined for the presence of any undissolved sample. If there still exists undissolved sample or undissolved portions of the sample after 10 mL water was added, the test would be continued in a 100 mL cylinder.

Compound | Volume of added water (room temperature) | water solubility, times higher than that of compound 46 | solubility (thermodynamic from solid) | solubility (room temperature)
CCCOCCOCCOc1ccc(F)c(F)c1C(=O)c1ccc(C(=O)N[C@@H]2CNC[C@H]2NC(=O)c2ccc3cn[nH]c3c2)cc1.Cl [JK-02P, (3R,4R)-3-{4-[2,3-difluoro-6-(3,6-dioxanonan-1-oxy)]benzoyl}benzamido-4-(1H-indazole-6-carboxamido)pyrrolidine hydrochloride] | 22.5 mL | about 3 times | 4400 µg/mL | –
COCCOCCOCCOc1ccc(F)c(F)c1C(=O)c1ccc(C(=O)N[C@@H]2CNC[C@H]2NC(=O)c2ccc3cn[nH]c3c2)cc1.Cl [JK-03M, (3R,4R)-3-{4-[2,3-difluoro-6-(2,5,8-trioxadecan-10-oxy)]benzoyl}benzamido-4-(1H-indazole-6-carboxamido)pyrrolidine hydrochloride] | 16.5 mL | about 4 times | – | 6100 µg/mL
COc1ccc(OCCOCCO)c(C(=O)c2ccc(C(=O)N[C@@H]3CNC[C@H]3NC(=O)c3ccc4cn[nH]c4c3)cc2)c1F.Cl [JK-M02H, (3R,4R)-3-{4-[2-fluoro-3-methoxy-6-(5-hydroxy-3-oxapentan-1-oxy)]benzoyl}benzamido-4-(1H-indazole-6-carboxamido)pyrrolidine hydrochloride] | 12.5 mL | – | 8000 µg/mL | –
CCCOCCOCCOc1ccc(OC)c(F)c1C(=O)c1ccc(C(=O)N[C@@H]2CNC[C@H]2NC(=O)c2ccc3cn[nH]c3c2)cc1.Cl [JK-M02P, (3R,4R)-3-{4-[2-fluoro-3-methoxy-6-(4,7-dioxanonan-9-oxy)]benzoyl}benzamido-4-(1H-indazole-6-carboxamido)pyrrolidine hydrochloride] | 22.0 mL | – | 4500 µg/mL | –
COCCOCCOCCOCCOCCOCCOCCOc1ccc(OC)c(F)c1C(=O)c1ccc(C(=O)N[C@@H]2CNC[C@H]2NC(=O)c2ccc3cn[nH]c3c2)cc1.Cl [JK-M07M, (3R,4R)-3-{4-[2-fluoro-3-methoxy-6-(2,5,8,11,14,17,20-heptaoxadocosan-22-oxy)]benzoyl}benzamido-4-(1H-indazole-6-carboxamido)pyrrolidine hydrochloride] | 7.5 mL | – | – | 13300 µg/mL
